For data set [1], the system named is amyloid precursor protein (APP) proteolysis. Kind of data set: Repressor Release Assay (RRA). To be noted: Cricetulus griseus, CHO-K1, all compounds tested at 20 μg/mL; luciferase activity over diluent control; transfected CHO-K1 cells; read-out: RRA data (Fold increase of APPI). The data set is classed as cell-based. As for the experimental part:
The beta amyloid inhibitory activity of many of the compounds of the present invention has been determined using the Repressor Release Assay (RRA). See, Table 3 below. A compound is considered active in RRA if it leads to at least a 1.5 fold increase in luciferase activity at 20 μg/mL and is non-toxic.
The compound is considered active in RRA if it leads to at least a 1.5 fold increase in APPI as measured by an increase in luciferase activity at 20 μg/mL and is non-toxic. Shuey, D. J., Sheiffele, P., Jones, D., Cockett, M. I., and Quinet, E. M. (1999) Repressor release: a useful tool for monitoring amyloid precursor protein (APP) proteolysis in mammalian cells. Society for Neuroscience Abstracts, Vol. 25, 29th Annual Meeting of Society for Neuroscience, Miami Beach, Fla., Oct. 23-28, 1999.
CHO—K1 cells are cultured in whole DMEM media (DMEM—High Glucose with 10% fetal bovine serum, 1% Non-essential Amino Acids, and 1% Penicillin-Streptomycin) at 37° C. with 5% CO2. Two million cells are plated into 10-cm dishes 24 hrs prior to transfection.
Transient transfections are completed as recommended by Gibco BRL using their Lipofectamine Plus system. First, 6 μg of pRSVO-luc and 6 μg of APP-lacI construct DNA are added to 460 μL Opti-Mem transfection media and incubated with 30 μL Plus reagent for 15 minutes. Then, a lipid mixture of 40 μL Lipofectamine reagent and 460 μL Opti-Mem transfection media is incubated with the DNA-Plus reagent mixture for 15 minutes. During the DNA-lipid incubation, the CHO—K1 cells are washed once and covered in 5.0 mL DMEM media without Penicillin-Streptomycin. The DNA-lipid preparation is then layered onto these cells and incubated at 37° C. overnight.
One and one half million transfected cells per well (100 μL total volume) are plated into sterile, opaque Packard 96-well Cultur-Plates in clear DMEM whole media (DMEM—without phenol red) and incubated at 37° C. with 5% CO2 for 3-5 hours.
Compounds are diluted using two different protocols; one protocol is used for compounds supplied neat (weighed powder in vial) and the other protocol is used for compounds supplied in solution (20 mM in DMSO in 96-well plates). For both protocols, 25 mM Hepes and 25 mM Hepes/1% DMSO are prepared fresh to be used as diluent. The Hepes/DMSO is used as the diluent control on all experimental plates.
The following Table 1 depicts the steps for compound dilution (the last step is the addition of compound to cells/media in tissue culture plate):
Because some compounds arrive in 96-well format at 20 mM, the following Table 2 represents the protocol for their dilution (an average molecular weight of these compounds was used to calculate these dilutions and as above, the last step is the addition of compound to cells/media in tissue culture plate):
Once compounds are diluted, they are applied in duplicate on cells in tissue culture plates (prepared above). Cells are incubated with compound at 37° C. with 5% CO2 for an additional 36-48 hours.
Luciferase assays (LucLite reagent, Packard) are performed and are read on a Packard TopCount instrument. Media is removed from each 96-well plate and replaced with 100 μL PBS per well (with Mg^2+ and Ca^2+). An equal volume (100 μL) of the LucLite lysis/substrate buffer is added to each well and the plates are sealed and mixed in the dark on a rotary shaker for 15-30 minutes at room temperature. Luciferase readings are then taken on the TopCount instrument. Measurements are expressed as relative light units (RLU) and are calculated and analyzed in MS Excel as follows:
Fold Increase: amount of luciferase activity (measured in relative light units) over diluent control.
SEM: standard error of the mean for fold increase.
Activity: A compound is considered active if it results in at least a 1.5 fold increase in luciferase activity at 20 μg/mL.
Toxicity: determined by loss of signal (<0.75 fold increase).

The test system of another data set is beta amyloid 40. The data set is described as follows: Aβ40/42 ELISA Assay (Aβ40). The class given is cell-based. To be noted: Cricetulus griseus; CHO cells carrying the APP-REP-NL plasmid, 22 hours, sandwich ELISA. As for the experimental part:
(§1) Compounds are diluted from DMSO stocks to 2 μM and below in a cell culture medium. Compounds are then applied to CHO cells carrying the APP-REP-NL plasmid [Sudhir et. al, J. Biolog. Chem. 267:25602-25608 (1992)] for a period of 22 hours. After the conditioning period, medium is collected, diluted in assay buffer containing protein, and samples, controls, and synthetic peptide standards are incubated on a prepared ELISA plate. Using a sandwich ELISA with antibodies specifically directed against the carboxyl terminus of beta amyloid 40 or 42 (analogous to the method reported by Haugabook et al., J. Neurosci. Methods 108:171-179 (2001) but using goat anti-mouse IgG1 (source: Southern Biotech) as the anchor, 6E10 as the capture antibody (Source: SENETEK), rabbit antiAβ40 and antiAβ42 (source: QCB) and APL-donkey anti-rabbit IgG (H+L, source: Southern Biotech) as the detection antibody), the effect of the compound treatment on the cellular production of extracellular beta amyloid is quantified. Cells treated with compound are subsequently incubated in cell culture medium containing MTS-formazan. After a short incubation period, MTS/medium containing plates are read in a spectrophotometer to determine the extent to which compound toxicity affected the cell's metabolism and ability to synthesize beta amyloid.
(§2) A. Test Samples: compound samples are supplied as 20 mM stock solutions in a 100% DMSO solution.
(§3) B. APP-REP-NL cells: Qualified cell lines are carried from week to week using 1:100 dilutions and are cultured in DMEM supplemented with 1× antibiotic/antimycotic, 200 ug/ml of G418 antibiotic, and 10% certified fetal calf serum. Cells are also banked in liquid nitrogen. Periodically, beta amyloid production is assessed, and cells are either kept in culture or replaced with progenitors at full expression.
(§4) C. Antibodies: From certified lots that have already been qualified in this assay. Antibodies are stored in small frozen aliquots at −80° C. that are thawed and used.
(§5) A compound is considered active if it has an EC50 for Aβ40 reduction of <100 μM and no toxicity at doses in the vicinity of the EC50.
A general note: ELISA stands for enzyme-linked immunosorbent assay.

Another data set deals with beta amyloid 42. Kind of data set: Aβ40/42 ELISA Assay (Aβ42). The class given is cell-based. The settings on record: CHO cells carrying the APP-REP-NL plasmid, 22 hours, sandwich ELISA; for EC50: Cricetulus griseus. As for the experimental part:
as §1, §2, §3, §4, §5

Molecules are shown by their SMILES.

Consider `CC(C)C(NS(=O)(=O)c1ccc(Cl)s1)c1ncnn1Cc1ccccc1` (centres unmarked) [Example 23, N-[1-(1-Benzyl-1H-1,2,4-triazol-5-yl)-2-methylpropyl]-5-chlorothiophene-2-sulfonamide], for which the melting point (in general, the temperature, or range, at which the solid turns liquid) lay in the range of 138 to 139 °C. For the same molecule, in data set [1], the fold induction at 20 µg/mL was 1.8. Further, the EC50 (commonly the concentration needed to bring the measured effect to its halfway point) in the data set with beta amyloid 40 is 5.2 µM. Also, in the data set on beta amyloid 42, a half-maximal response (EC50) required 13.2 µM.
Molecule `Cc1ccc(Cn2ncnc2C(NS(=O)(=O)c2ccc(Cl)s2)C(C)C)cc1` (centres unmarked) [Example 24, 5-Chloro-N-{2-methyl-1-[1-(4-methylbenzyl)-1H-1,2,4-triazol-5-yl]propyl}thiophene-2-sulfonamide] displayed a melting point of 124 to 125 °C. Further, the fold induction at 20 µg/mL in data set [1] stood at 1.8. For the same molecule, a half-maximal effect in the data set with beta amyloid 40 (EC50) was put at 6 µM. Also, the EC50 in the data set with beta amyloid 42 was 11 µM.
Taken in the same sequence, the figures for `CCC(CC)C(NS(=O)(=O)c1ccc(Cl)s1)c1ncnn1Cc1ccc(C)cc1` (centres unmarked) [Example 27, 5-Chloro-N-{2-ethyl-1-[1-(4-methylbenzyl)-1H-1,2,4-triazol-5-yl]butyl}thiophene-2-sulfonamide] were 103 to 104 °C, 13, 2.7 µM and 6.2 µM.
With `CCC(CC)C(NS(=O)(=O)c1ccc(Cl)s1)c1ccnn1Cc1ccc(O)cc1` (centres unmarked) [Example 8, 5-Chloro-N-{2-ethyl-1-[1-(4-hydroxybenzyl)-1H-pyrazol-5-yl]butyl}thiophene-2-sulfonamide], the melting point lay within 90 to 92 °C. Further, the fold induction at 20 µg/mL in data set [1] came out at 4.5.
In turn, `Cc1ccc(Cn2ncnc2C(C)NS(=O)(=O)c2ccc(Cl)s2)cc1` (centres unmarked) [Example 26, 5-Chloro-N-{1-[1-(4-methylbenzyl)-1H-1,2,4-triazol-5-yl]ethyl}thiophene-2-sulfonamide] yielded a melting point of 116 to 117 °C. Besides, the fold induction at 20 µg/mL in data set [1] was 5.6. For the same molecule, in the data set with beta amyloid 40, the EC50 was 9.6 µM. Also, a half-maximal response with beta amyloid 42 (EC50) required 15.5 µM.
The molecule `CC(C)C(NS(=O)(=O)c1ccc(Cl)s1)c1cccn1Cc1ccccc1` (centres unmarked) [Example 31, N-[1-(1-Benzyl-1H-pyrrol-2-yl)-2-methylpropyl]-5-chlorothiophene-2-sulfonamide] gave a melting point of 102 to 103 °C. Besides, the fold induction at 20 µg/mL in data set [1] worked out at 5.3. The molecule further yielded an EC50 in the data set with beta amyloid 40 of 26.7 µM. Also, the “Effect on Aβ42 production” value in the data set with beta amyloid 42 is given as “increase”.
For `CCC(CC)C(c1ccnn1-c1ccccc1)N(C)S(=O)(=O)c1ccc(Cl)s1` (centres unmarked) [Example 46, 5-Chloro-N-[2-ethyl-1-(1-phenyl-1H-pyrazol-5-yl)butyl]-N-methylthiophene-2-sulfonamide], the melting point lay in the range of 125.8 to 127.6 °C. Besides, in the data set with beta amyloid 40, the EC50 worked out at 70.1 µM. Moreover, the “Effect on Aβ42 production” value in the data set with beta amyloid 42 is “increase”.
`CCC(CC)C(NS(=O)(=O)c1ccc(Cl)cc1)c1ccnn1-c1ccccc1` (centres unmarked) [Example 36, 4-Chloro-N-[2-ethyl-1-(1-phenyl-1H-pyrazol-5-yl)butyl]benzenesulfonamide] yielded a melting point of 135 to 136.4 °C. In the data set on beta amyloid 40, this molecule came in with an EC50 of 23 µM. For the same molecule, in the data set on beta amyloid 42, the “Effect on Aβ42 production” value is reported as “increase”.
Regarding `CCC(CC)C(NS(=O)(=O)c1ccc(C#N)cc1)c1ccnn1-c1ccccc1` (centres unmarked) [Example 37, 4-Cyano-N-[2-ethyl-1-(1-phenyl-1H-pyrazol-5-yl)butyl]benzenesulfonamide], the melting point fell in the range of 134.6 to 136.6 °C. Moreover, in the data set on beta amyloid 40, a half-maximal response (EC50) required 85.2 µM. Further, in the data set with beta amyloid 42, the “Effect on Aβ42 production” value is on record as “increase”.
In turn, `CCC(CC)C(NS(=O)(=O)c1ccc(Br)s1)c1ccnn1-c1ccccc1` (centres unmarked) [Example 40, 5-Bromo-N-[2-ethyl-1-(1-phenyl-1H-pyrazol-5-yl)butyl]thiophene-2-sulfonamide] showed a melting point of 120 to 120.7 °C. This molecule returned an EC50 in the data set on beta amyloid 40 of 4.1 µM. Also, the concentration for a half-maximal effect (EC50) with beta amyloid 42 turned out to be 7.5 µM.
`CCC(CC)C(NS(=O)(=O)c1ccc(Cl)s1)c1ncnn1Cc1ccc(OC)cc1` (centres unmarked) [Example 21, 5-Chloro-N-{2-ethyl-1-[1-(4-methoxybenzyl)-1H-1,2,4-triazol-5-yl]butyl}thiophene-2-sulfonamide] came in with a melting point of 136 to 137 °C. In addition, the fold induction at 20 µg/mL in data set [1] amounted to 10.8. A half-maximal effect in the data set with beta amyloid 40 (EC50) was put at 1.4 µM. In the data set on beta amyloid 42, this molecule returned an EC50 of 3.1 µM.
For the molecule `CCC(CC)C(NS(=O)(=O)c1ccc(Cl)c(Cl)c1)c1ccnn1-c1ccccc1` (centres unmarked) [Example 39, 3,4-Dichloro-N-[2-ethyl-1-(1-phenyl-1H-pyrazol-5-yl)butyl]benzenesulfonamide], the melting point lay in the range of 56 to 66 °C. The molecule further registered an EC50 in the data set on beta amyloid 40 of 25.5 µM. The “Effect on Aβ42 production” value in the data set with beta amyloid 42 is recorded as “increase”.
`O=S(=O)(NC(c1ccc(F)cc1)c1ccnn1-c1ccc(F)cc1)c1ccc(Cl)s1` (centres unmarked) [Example 34, 5-Chloro-N-{(4-fluorophenyl) [1-(4-fluorophenyl)-1H-pyrazol-5-yl]methyl}thiophene-2-sulfonamide] yielded a melting point of 159 to 160 °C. In addition, the EC50 in the data set on beta amyloid 40 was found to be 5.8 µM. The molecule further gave an EC50 in the data set on beta amyloid 42 of 10.1 µM.
In turn, `CCC(CC)C(c1ccnn1-c1ccccc1)N(C)S(=O)(=O)c1ccc(Cl)c(Cl)c1` (centres unmarked) [Example 47, 3,4-Dichloro-N-[2-ethyl-1-(1-phenyl-1H-pyrazol-5-yl)butyl]-N-methylbenzenesulfonamide] showed a melting point of 102.1 to 104.1 °C. A half-maximal response in the data set with beta amyloid 40 (EC50) required 61.2 µM. In addition, in the data set with beta amyloid 42, the “Effect on Aβ42 production” value was “increase”.
